From ChEMBL document CHEMBL1201862, “PubChem BioAssay data set” (2004)
Calls of active or inactive are those of the source.

What was measured:
[1] = biological target: Cyclin-dependent kinase 5/CDK5 activator 1 (Homo sapiens, UniProt Q00535); assay: human CDK5 activity blockade – biochemical, microfluidic mobility shift, dry powder, selectivity assay for GSK-3 alpha inhibitor project, dose response (AID 588430)
[2] = biological target: Glycogen synthase kinase-3 alpha (Homo sapiens, UniProt P49840); assay: Inhibition of Human GSK-3 alpha Activity Measured in Biochemical System Using Microfluidics - 2063-06_Inhibitor_Dose_DryPowder_Activity_Set2. [Related pubchem assays (depositor defined):AID2709]
Glycogen synthase kinase-3 alpha, sequence (P49840 whole entry): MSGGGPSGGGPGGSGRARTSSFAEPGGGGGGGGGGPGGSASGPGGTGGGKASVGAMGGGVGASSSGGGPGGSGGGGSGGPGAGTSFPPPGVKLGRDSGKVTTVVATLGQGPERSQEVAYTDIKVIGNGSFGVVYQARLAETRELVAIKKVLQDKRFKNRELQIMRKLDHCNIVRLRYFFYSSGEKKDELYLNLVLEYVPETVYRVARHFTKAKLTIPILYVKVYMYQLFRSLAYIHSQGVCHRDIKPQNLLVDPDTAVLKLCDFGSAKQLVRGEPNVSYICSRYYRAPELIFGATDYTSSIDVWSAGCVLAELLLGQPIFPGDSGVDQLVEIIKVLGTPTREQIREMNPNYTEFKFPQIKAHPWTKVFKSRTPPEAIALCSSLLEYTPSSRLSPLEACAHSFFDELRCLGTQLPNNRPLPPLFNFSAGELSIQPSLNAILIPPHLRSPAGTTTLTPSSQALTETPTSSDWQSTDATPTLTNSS

[3] = biological target: Glycogen synthase kinase-3 beta (Homo sapiens, UniProt P49841); assay: Inhibition of Human GSK-3 beta Activity Measured in Biochemical System Using Microfluidics - 2063-05_Inhibitor_Dose_DryPowder_Activity_Set2. [Related pubchem assays (depositor defined):AID2709]
Glycogen synthase kinase-3 beta, sequence (P49841 whole entry): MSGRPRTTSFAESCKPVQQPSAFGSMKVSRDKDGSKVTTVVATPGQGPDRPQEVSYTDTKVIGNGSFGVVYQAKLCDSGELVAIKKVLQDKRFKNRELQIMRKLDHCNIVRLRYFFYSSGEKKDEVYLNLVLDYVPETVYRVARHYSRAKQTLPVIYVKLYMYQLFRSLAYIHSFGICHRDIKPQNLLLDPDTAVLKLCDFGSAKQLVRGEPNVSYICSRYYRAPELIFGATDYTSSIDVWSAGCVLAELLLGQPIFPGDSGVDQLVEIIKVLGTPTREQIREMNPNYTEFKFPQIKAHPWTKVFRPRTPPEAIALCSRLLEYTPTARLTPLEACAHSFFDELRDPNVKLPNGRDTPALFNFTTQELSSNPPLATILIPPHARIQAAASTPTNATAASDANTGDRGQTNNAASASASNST

[4] = biological target: Protein disulfide-isomerase (Homo sapiens, UniProt P07237); assay: inhibition of PDI-driven insulin aggregation – biochemical, turbidity, absorbance, cherry-picked samples, dose response (AID 602350); assay type: functional
Protein disulfide-isomerase, sequence (P07237 whole entry): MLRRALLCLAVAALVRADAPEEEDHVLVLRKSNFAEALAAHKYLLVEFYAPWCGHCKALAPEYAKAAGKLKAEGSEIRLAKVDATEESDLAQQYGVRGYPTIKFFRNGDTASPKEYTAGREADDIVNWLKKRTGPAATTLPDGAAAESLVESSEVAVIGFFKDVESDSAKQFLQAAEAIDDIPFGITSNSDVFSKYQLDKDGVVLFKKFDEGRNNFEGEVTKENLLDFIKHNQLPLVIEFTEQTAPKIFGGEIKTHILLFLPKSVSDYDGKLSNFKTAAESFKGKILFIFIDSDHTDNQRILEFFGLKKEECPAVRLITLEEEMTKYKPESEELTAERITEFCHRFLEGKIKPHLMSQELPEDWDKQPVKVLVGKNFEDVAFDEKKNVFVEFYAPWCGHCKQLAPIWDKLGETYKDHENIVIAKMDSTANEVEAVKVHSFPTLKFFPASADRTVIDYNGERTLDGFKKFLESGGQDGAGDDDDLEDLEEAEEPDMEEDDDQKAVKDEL

[5] = biological target: Cyclin-dependent kinase 19 (Homo sapiens, UniProt Q9BWU1); assay: Navigating the Kinome. Panel member name: CDC2L6; assay type: functional
Cyclin-dependent kinase 19, sequence (Q9BWU1 whole entry): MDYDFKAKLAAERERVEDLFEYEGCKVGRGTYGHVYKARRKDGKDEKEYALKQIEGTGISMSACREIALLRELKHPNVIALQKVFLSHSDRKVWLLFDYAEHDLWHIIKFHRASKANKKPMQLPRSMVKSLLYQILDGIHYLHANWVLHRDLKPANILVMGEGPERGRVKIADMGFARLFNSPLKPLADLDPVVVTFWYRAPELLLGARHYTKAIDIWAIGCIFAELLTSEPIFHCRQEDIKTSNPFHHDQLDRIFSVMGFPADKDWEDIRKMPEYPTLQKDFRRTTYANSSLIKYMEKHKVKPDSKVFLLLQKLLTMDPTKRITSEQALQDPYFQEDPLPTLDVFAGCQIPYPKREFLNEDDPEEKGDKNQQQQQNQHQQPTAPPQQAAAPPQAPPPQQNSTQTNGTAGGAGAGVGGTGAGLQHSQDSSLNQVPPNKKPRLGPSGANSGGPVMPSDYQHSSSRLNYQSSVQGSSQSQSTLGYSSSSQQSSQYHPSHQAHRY

[6] = biological target: ALK tyrosine kinase receptor (Homo sapiens, UniProt Q9UM73); assay type: functional;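 note: ALK tested as one member of a kinase panel screen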
ALK tyrosine kinase receptor, sequence (Q9UM73 whole entry): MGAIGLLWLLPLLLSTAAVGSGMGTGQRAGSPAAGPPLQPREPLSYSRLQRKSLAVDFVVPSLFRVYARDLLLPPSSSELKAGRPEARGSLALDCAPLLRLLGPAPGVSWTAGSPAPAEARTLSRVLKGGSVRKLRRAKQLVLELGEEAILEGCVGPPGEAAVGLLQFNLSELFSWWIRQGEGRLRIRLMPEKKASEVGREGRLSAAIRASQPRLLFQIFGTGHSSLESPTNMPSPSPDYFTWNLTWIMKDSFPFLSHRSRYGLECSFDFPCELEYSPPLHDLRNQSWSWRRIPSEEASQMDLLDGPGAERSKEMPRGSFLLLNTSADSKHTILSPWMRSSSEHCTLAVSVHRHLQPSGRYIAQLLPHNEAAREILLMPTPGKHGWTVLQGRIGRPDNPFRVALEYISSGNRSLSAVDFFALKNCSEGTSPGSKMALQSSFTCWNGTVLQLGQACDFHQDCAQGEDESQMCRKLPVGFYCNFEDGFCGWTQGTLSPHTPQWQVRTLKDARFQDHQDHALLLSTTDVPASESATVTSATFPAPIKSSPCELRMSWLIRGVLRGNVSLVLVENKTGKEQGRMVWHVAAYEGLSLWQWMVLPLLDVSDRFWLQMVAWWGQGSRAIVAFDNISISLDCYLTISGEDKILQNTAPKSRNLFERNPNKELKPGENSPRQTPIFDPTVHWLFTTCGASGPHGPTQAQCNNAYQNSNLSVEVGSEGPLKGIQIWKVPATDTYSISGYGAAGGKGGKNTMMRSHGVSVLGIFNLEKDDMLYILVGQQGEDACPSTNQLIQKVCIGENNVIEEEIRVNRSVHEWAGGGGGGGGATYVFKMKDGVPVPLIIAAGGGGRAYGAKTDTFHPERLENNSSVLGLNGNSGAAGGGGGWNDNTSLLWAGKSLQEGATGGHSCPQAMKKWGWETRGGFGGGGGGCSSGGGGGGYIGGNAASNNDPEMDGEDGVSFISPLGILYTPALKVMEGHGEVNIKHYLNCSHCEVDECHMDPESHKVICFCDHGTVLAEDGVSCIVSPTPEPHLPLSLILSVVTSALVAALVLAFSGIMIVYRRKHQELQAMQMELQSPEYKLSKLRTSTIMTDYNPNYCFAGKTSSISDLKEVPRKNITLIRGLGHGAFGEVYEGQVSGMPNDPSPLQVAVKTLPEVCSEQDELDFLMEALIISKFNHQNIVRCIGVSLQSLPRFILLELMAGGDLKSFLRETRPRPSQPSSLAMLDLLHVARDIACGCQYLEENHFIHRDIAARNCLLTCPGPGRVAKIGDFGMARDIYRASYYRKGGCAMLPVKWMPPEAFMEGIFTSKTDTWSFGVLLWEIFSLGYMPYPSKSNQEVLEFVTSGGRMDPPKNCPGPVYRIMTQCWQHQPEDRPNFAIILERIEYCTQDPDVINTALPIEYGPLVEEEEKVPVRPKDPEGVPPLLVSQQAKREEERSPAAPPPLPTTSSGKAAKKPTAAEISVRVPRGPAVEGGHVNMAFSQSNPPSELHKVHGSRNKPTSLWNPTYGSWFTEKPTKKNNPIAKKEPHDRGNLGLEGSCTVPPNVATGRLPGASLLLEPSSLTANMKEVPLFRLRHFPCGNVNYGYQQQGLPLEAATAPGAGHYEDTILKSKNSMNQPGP

[7] = biological target: T1, Sphingosine 1-phosphate receptor 4 (Homo sapiens, UniProt O95977); assay: Late-stage fluorescence-based dose-response cell-based counterscreen assay to identify agonists of the Sphingosine 1-Phosphate Receptor 3 (S1P3): Sphingosine 1-Phosphate Receptor 4 (S1P4) agonist assay.; assay type: functional
T1 sequence (O95977 whole entry): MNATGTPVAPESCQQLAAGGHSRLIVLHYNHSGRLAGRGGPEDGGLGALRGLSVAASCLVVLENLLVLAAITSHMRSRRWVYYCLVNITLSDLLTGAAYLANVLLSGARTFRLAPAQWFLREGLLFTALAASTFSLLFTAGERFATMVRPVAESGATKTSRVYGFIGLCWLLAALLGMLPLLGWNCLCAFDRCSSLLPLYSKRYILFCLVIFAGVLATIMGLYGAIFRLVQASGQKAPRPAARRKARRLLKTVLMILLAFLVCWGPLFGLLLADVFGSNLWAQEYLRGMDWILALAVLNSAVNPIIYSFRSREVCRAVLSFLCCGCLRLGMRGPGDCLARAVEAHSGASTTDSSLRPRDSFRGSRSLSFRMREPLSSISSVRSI

[8] = biological target: Sphingosine 1-phosphate receptor 2 (Homo sapiens, UniProt O95136); assay: Late-stage fluorescence-based dose-response cell-based counterscreen assay to identify agonists of the Sphingosine 1-Phosphate Receptor 3 (S1P3): Sphingosine 1-Phosphate Receptor 2 (S1P2) agonist assay.; assay type: functional
Sphingosine 1-phosphate receptor 2, sequence (O95136 whole entry): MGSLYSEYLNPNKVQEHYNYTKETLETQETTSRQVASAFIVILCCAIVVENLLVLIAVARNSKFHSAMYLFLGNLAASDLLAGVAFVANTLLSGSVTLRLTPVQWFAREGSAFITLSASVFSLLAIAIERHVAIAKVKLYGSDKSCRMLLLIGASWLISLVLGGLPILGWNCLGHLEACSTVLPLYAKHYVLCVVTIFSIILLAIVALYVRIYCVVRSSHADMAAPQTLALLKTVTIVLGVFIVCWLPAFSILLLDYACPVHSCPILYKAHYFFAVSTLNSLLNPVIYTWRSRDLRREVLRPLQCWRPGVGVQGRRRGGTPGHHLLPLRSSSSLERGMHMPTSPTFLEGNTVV

[9] = biological target: T2, Apoptotic protease-activating factor 1 (Homo sapiens, UniProt O14727); assay: SAR analysis of small molecule inhibitors of Apaf-1 in a Fluorescent assay.; assay type: functional; conditions: read-out: IC50_Mean
T2 sequence (O14727 whole entry): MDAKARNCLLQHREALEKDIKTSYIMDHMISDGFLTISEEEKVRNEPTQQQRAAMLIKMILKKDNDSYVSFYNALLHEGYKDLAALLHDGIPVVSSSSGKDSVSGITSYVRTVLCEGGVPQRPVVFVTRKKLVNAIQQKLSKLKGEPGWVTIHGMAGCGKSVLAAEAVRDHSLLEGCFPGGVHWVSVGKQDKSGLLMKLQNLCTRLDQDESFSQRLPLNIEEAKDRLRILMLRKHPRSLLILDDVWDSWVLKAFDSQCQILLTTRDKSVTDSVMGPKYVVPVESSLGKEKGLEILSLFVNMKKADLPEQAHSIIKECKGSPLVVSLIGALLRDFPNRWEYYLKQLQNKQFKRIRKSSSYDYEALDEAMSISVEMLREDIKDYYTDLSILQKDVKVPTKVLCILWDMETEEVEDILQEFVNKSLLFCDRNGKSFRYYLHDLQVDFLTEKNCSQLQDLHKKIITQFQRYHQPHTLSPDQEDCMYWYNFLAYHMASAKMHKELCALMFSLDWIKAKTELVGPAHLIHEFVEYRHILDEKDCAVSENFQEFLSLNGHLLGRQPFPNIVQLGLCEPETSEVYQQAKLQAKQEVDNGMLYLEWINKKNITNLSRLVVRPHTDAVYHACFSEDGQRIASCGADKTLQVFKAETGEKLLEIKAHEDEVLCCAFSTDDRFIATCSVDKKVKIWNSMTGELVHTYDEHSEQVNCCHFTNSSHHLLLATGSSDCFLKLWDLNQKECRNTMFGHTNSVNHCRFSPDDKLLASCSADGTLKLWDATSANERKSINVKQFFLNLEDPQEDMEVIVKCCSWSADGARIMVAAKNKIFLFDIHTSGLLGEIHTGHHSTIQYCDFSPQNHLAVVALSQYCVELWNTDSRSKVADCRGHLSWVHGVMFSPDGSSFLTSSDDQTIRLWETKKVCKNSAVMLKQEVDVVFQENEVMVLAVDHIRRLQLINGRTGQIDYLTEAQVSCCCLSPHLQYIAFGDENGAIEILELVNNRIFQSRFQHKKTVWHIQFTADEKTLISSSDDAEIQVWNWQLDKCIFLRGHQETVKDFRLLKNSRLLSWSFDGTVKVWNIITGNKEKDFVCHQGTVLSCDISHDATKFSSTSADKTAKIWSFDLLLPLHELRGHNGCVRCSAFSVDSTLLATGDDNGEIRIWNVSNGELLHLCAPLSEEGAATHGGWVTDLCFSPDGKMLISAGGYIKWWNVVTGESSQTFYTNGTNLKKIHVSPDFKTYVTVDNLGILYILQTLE

Cyclin-dependent kinase 5/CDK5 activator 1, sequence (Q00535 whole entry): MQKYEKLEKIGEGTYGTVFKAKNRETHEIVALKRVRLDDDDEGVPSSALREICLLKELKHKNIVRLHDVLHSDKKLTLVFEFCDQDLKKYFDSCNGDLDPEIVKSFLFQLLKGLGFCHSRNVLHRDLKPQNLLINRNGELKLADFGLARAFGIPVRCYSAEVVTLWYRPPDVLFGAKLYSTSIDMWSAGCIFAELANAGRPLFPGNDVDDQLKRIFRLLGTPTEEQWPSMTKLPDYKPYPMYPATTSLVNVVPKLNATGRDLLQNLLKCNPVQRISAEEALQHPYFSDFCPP
Cyclin-dependent kinase 5/CDK5 activator 1, sequence (Q15078 whole entry, further chain): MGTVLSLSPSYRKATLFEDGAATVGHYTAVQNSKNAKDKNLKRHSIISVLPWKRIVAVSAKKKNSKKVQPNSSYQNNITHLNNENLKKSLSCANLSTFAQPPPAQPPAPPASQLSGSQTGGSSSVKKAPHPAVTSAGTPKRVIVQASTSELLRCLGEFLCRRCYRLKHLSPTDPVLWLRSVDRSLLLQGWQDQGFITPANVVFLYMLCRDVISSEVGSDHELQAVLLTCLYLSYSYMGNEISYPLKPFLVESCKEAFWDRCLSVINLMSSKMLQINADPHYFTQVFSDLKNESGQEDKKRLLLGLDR

SMILES: CCCN(CCC)Cc1c(C(=O)N/N=C/c2ccoc2)nnn1-c1nonc1N
- AC50 [1]: 40.6 µM (active)
- AC50 [2]: 1.24 µM (active)
- AC50 [3]: 0.457 µM (active)

SMILES: Cc1noc(C)c1S(=O)(=O)Nc1ccc2c(c1)CC(=O)N([C@H](C)CO)C[C@H](C)[C@@H](CN(C)S(=O)(=O)c1ccc(F)cc1)O2
- AC50 [4]: 19.5 µM (active)

SMILES: CN(C)CCc1ccc(Nc2nccc(-c3c(-c4cccc(C(O)CO)c4)nc4ccccn34)n2)cc1 (centres undefined)
- Ki [5]: 3.16 µM (active)
- Ki [6]: 3.16 µM (active)

SMILES: O=C(c1cc(-c2ccccc2)on1)N(C1CCCCC1)C1CCCC1
- EC50 [7]: > 50 µM (inactive)
- EC50 [8]: > 50 µM (inactive)

SMILES: Cn1cc(C(CC(=O)c2ccc(C(C)(C)C)cc2)C(=O)O)c2ccccc21 (centres undefined)
- IC50 [9]: 90.5 µM (active)
